US20050203063A1, “Proteasome pathway inhibitors and related methods” (priority 2003, published 2005)
“Also recorded” adds a separate entry of the source. Where two headings read alike, the source gives them in different places.

Key:
Assay type in all cases: biochemical
[1] = target: T1, 20S core peptidase activity (Saccharomyces cerevisiae, UniProt P25043+P30656+P38624); test: 20S core peptidase activity in native gel with fluorescent substrate
T1 construct: made in house; host or cells: S. cerevisiae cells expressing Flag-tagged PRE1
Description: FIG. 6. […] (A) Purified 26S proteasomes were preincubated with test compounds before being resolved on a native gel. Following electrophoresis, the gel was stained with Coomassie Blue. […] Same as (A), except that following electrophoresis, the gel was incubated with fluorescent substrate to determine peptidase activity, which was visualized using a UV transilluminator (9). […] (C) Untreated 26S proteasomes were resolved on a native gel. Following electrophoresis, the gel was incubated with the peptidase substrate in the presence of ubistatin.
26S proteasomes were purified from S. cerevisiae cells expressing a Flag-tagged proteasomal subunit (PRE1) essentially as described (28).

[2] = tested on: β-catenin-luciferase turnover (substrate of the SCFβ-TRCP ubiquitin ligase); test: β-catenin-luciferase turnover in interphase Xenopus extracts stimulated with recombinant axin; details: 200 μM compound
Description: (§1) FIG. 1. Functional classification of inhibitors. Compounds that scored in the initial screen were reacquired as dry powders and retested in Xenopus extracts in 4 assays at 200 μM concentration (32) as described (6). […] (A) Compounds and cyclin-luciferase were added to interphase extracts, which were then induced to enter mitosis by addition of non-degradable cyclin B. Percent inhibition of cyc-luc turnover by each compound is coded according to the grayscale shown at the bottom of the figure; specific values are available in Table 1. (B) Extracts were pre-treated with non-degradable cyclin B to allow entry into mitosis prior to addition of test compound and reporter protein. (C) Interphase extracts were treated by addition of recombinant Cdh1 to activate cyc-luc turnover. (D) Interphase extracts were treated with recombinant axin to induce turnover of β-catenin-luciferase.
(§2) The “Cmpd” column corresponds to the numbers used in FIG. 1; “Class” refers to the class of inhibitor described in FIG. 1 and the text. Columns A-D show percent inhibition in the four assays described in FIG. 1. (A) Interphase extracts (B) Mitotic extracts (C) Interphase extracts stimulated with Cdh1 (D) Degradation of a β-catenin reporter protein in interphase extracts stimulated with recombinant axin. […] “ID#” refers to the identification number of the inhibitor obtained from the NCI (prefaced by NSC) or Chembridge (prefaced by C).
(§3) Dry compounds were redissolved at 20 mM concentration in DMSO, or a 50:50 water:DMSO mixture in certain cases. These compounds were then diluted ten-fold in XB and mixed thoroughly. For the assay in FIG. 1A, chilled interphase extract was mixed with cyclin BΔ90 (10 μg/ml) and cyc-luc (0.1 μg/ml) in bulk and then 27 μl of extract was pipetted to each well of a chilled 384-well plate. Three microliters of each compound (diluted in XB) was then added to each well, and then compounds mixed thoroughly. Plates were warmed to room temperature. After 70 minutes, 5 μl aliquots were transferred to another plate, and then 30 μl of luciferin reagent was added to each well and luminescence measured. Percent inhibition was calculated as described above. The reported values represent the average of three independent measurments. For the assay in FIG. 1B, interphase extracts were treated with 10 μg/cyclin B 90 for 50 minutes at room temperature and then chilled on ice. Cyc-luc was then added, and then 27 μl of extract was pipetted to each well of a chilled 384-well plate. Three microliters of each compound (diluted in XB) was then added to each well, and then compounds mixed thoroughly. Plates were warmed to room temperature. After 60 minutes, 5 μl aliquots were transferred to another plate, and then 30 μl of luciferin reagent was added to each well and luminescence measured. For the assay in FIG. 1C, recombinant Cdh1 (0.1 μg/ml) and cyc-luc were added to chilled interphase extracts. Extracts were then pipetted and compounds added as above. Plates were warmed to room temperature and incubated for three hours, following which luminescence was measured as above. For the assay in FIG. 1D, chilled interphase extracts received recombinant axin and beta-catenin-luciferase reporter as described (8). Extracts were aliquoted to chilled plates and compounds distributed as described above. Plates were warmed to room temperature, incubated for three hours, and luminescence measured.

[3] = tested on: Cdh1-stimulated cyc-luc proteolysis (APC/C); test: cyc-luc turnover in interphase Xenopus extracts stimulated with recombinant Cdh1; details: 200 μM compound; negative values reflect stimulation of proteolysis
Description: as §1, §2, §3

[4] = tested on: cyclin-luciferase (cyc-luc) turnover, APC/C activation; test: cyc-luc turnover in interphase Xenopus extracts induced to enter mitosis by non-degradable cyclin B; details: 200 μM compound; added to interphase extracts then induced to enter mitosis; average of three measurements
Description: as §1, §2
Extracts were rapidly thawed and diluted to a final concentration of 75% in extract buffer (XB) just prior to assay (XB; 100 mM KCl, 0.1 mM CaCl2, 1 mM MgCl2, 10 mM potassium HEPES, pH 7.7, 50 mM sucrose). Extracts were kept on ice and supplemented with 1 mg/ml bovine ubiquitin (Sigma) unless otherwise stated. Cyc-luc expressed in reticulocyte lysate was diluted 1/200 for most assays. High-throughput screening utilized the bacterially expressed and purified cyclin-luc fusion protein, which was added to extracts at a final concentration of 0.1 μg/ml. To induce entrance into mitosis, cyclin BΔ90 protein was added to a final concentration of 10 μg/ml. For the dose response analysis, inhibitors were purchased from Calbiochem (San Diego, Calif.) and dissolved in DMSO as 10 mM stocks. Cyclin-luciferase and cyclin BΔ90 were mixed with interphase extract and placed on ice. Inhibitors were then added to extracts to yield a final DMSO concentration of 1%. 10 μl aliquots of extract were distributed into 384-well white Cliniplates (Labsystems), and cell cycle progression was initiated by warming the samples to room temperature. After 60 minutes, 30 μl of luciferin reagent (20 mM tricine pH 7.8, 470 μM D-Luciferin [Molecular Probes]), 270 μM Coenzyme A, 0.1 mM EDTA, 33 mM DTT, and 530 μM ATP) was added using a multidrop dispenser (Labsystems). Luminescence was measured on an Analyst plate reader (LJL Biosystems). The values for 3 replicates were averaged. For the dose response analysis, percent inhibition was calculated as 100*(T−M)/(I−M) where T equals the test value for the inhibitor, M equals the value in a mitotic extract lacking inhibitor, and I equals the value in an interphase extract. For certain experiments, methylated ubiquitin was added to interphase extracts at a concentration of 1 mg/ml in the presence or absence of added unmodified ubiquitin (1 mg/ml) used as competitor. Cyclin-luciferase and cyclin BΔ90 were then added. After 60 minutes, the reactions were stopped and analyzed as described above.
Dry compounds were redissolved at 20 mM concentration in DMSO, or a 50:50 water:DMSO mixture in certain cases. These compounds were then diluted ten-fold in XB and mixed thoroughly. For the assay in FIG. 1A, chilled interphase extract was mixed with cyclin BΔ90 (10 μg/ml) and cyc-luc (0.1 μg/ml) in bulk and then 27 μl of extract was pipetted to each well of a chilled 384-well plate.

Row | Compound | effect on 20S core peptidase activity [1] | percent inhibition, (D) Degradation of a β-catenin reporter protein in interphase extracts stimulated with recombinant axin [2] | percent inhibition of cyc-luc turnover, (C) Interphase extracts stimulated with Cdh1 [3] | percent inhibition of cyc-luc turnover, (A) Interphase extracts [4] | effect on 20S core peptidase activity ([1]; listed as C92)
1 | CC(=O)Nc1ccc(SSc2ccc(NC(C)=O)c3cccnc23)c2ncccc12 [Compound 23] | without effect | 27% | 100% | 100% | –
2 | O=S(=O)(O)c1ccc2cc3c(cc2c1)NN(c1ccc(/C=C/c2ccc(N4Nc5cc6ccc(S(=O)(=O)O)cc6cc5N4)cc2S(=O)(=O)O)c(S(=O)(=O)O)c1)N3 [Compound 59] | without affecting | 70% | 100% | 97% | –
3 | O=C(Nc1ccc(/C=C/c2ccc(NC(=O)c3cc(S(=O)(=O)O)c4cccnc4c3O)cc2S(=O)(=O)O)c(S(=O)(=O)O)c1)c1cc(S(=O)(=O)O)c2cccnc2c1O [Compound 92] | – | 21% | 65% | 60% | does not affect; also recorded: without affecting
